Like-named read-outs stand apart in the source and are kept apart here.
Legend:
[1] = target: T1, human kappa opioid receptor (Homo sapiens, UniProt P41145); assay: biochemical; conditions: for Emax: 1 h, read-out: Efficacy
T1 construct: expressed in transfected cells; host or cells: Chinese hamster ovary cells (CHO-hKOR), membranes

[2] = target: T1, human kappa opioid receptor; assay: biochemical; type: binding
rats [3] = assay: Locomotor activity test; type: in vivo, rat; conditions: FIG. 3B
rats [4] = assay: Forced swim test (FST); type: in vivo, rat; conditions: FIG. 3A
rats [5] = assay: Intracranial self-stimulation (ICSS), lateral hypothalamic brain stimulation; type: in vivo, rat; conditions: 1.0 mg/kg, IP, 1-hour test sessions, FIG. 4

T1 sequence (P41145 whole entry): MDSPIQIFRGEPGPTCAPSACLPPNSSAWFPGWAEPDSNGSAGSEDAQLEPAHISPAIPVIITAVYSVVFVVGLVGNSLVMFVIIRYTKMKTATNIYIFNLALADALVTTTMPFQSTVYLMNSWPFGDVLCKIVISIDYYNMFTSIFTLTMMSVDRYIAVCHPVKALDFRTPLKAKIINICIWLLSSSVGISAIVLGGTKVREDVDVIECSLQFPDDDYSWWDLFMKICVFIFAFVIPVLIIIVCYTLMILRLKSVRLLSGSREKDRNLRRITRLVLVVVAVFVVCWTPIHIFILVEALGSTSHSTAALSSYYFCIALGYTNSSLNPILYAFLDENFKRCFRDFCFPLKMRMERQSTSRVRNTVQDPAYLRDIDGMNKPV

| Molecule | EC50 [1] [nM] | Ki [2] [nM] | Emax [1] [%] | also measured |
| --- | --- | --- | --- | --- |
| CCC(=O)N(C)[C@@H]1C[C@@H](C(=O)OC)[C@]2(C)CC[C@H]3C(=O)O[C@H](c4ccoc4)C[C@]3(C)C2C1=O (stereo partly drawn) [Compound 81, 2-epi-(N-methylpropionamide)-salvinorin] | 12.6 ± 0.9 | 6.9 ± 1.1 |  |  |
| COC(=O)C1CC(NC(C)C)C(=O)C2C1(C)CCC1C(=O)OC(c3ccoc3)CC12C (centres unmarked) [Compound 210a, 2-(N-isopropyl)-salvinorin] | 18.9 ± 0.6 | 17.6 ± 3.1 | 99 |  |
| COC(=O)[C@@H]1C[C@H](OC(=O)[C@H](C)NC(C)=O)C(=O)C2[C@@]1(C)CC[C@H]1C(=O)O[C@H](c3ccoc3)C[C@]21C (some centres unmarked) [Compound 91] | 219 ± 25 | 176 ± 5.5 | 93 |  |
| COC(=O)[C@@H]1C[C@H](OC(N)=O)C(=O)C2[C@@]1(C)CC[C@H]1C(=O)O[C@H](c3ccoc3)C[C@]21C (some centres unmarked) [Compound 9, 2-(O-formamide)-salvinorin B] | 6.2 ± 1.4 | 3.2 ± 0.2 | 99 |  |
| COC(=O)O[C@H]1C[C@@H](C(=O)OC)[C@]2(C)CC[C@H]3C(=O)O[C@H](c4ccoc4)C[C@]3(C)C2C1=O (some centres unmarked) [Compound 29] | > 1720 | > 91 |  |  |
| CC(=O)O[C@H]1C[C@@H](C(=O)O)[C@]2(C)CC[C@H]3C(=O)O[C@H](c4ccoc4)C[C@]3(C)C2C1=O (some centres unmarked) [Compound 32, demethyl Salvinorin] | > 1230 | > 115 |  |  |
| C=CCO[C@H]1C[C@@H](C(=O)OC)[C@]2(C)CC[C@H]3C(=O)O[C@H](c4ccoc4)C[C@]3(C)C2C1=O (some centres unmarked) [Compound 14, 2-allyloxy-salvinorin B] | 145 ± 33 | 60.1 ± 5.1 | 106 |  |
| CNC1CC(C(=O)OC)C2(C)CCC3C(=O)OC(c4ccoc4)CC3(C)C2C1=O (centres unmarked) [Compound 208a, 2-(N-methyl)-salvinorin] | 825 ± 93 | 328 ± 40 | 82 |  |
| CCNC1CC(C(=O)OC)C2(C)CCC3C(=O)OC(c4ccoc4)CC3(C)C2C1=O (centres unmarked) [Compound 209a, 2-(N-ethyl)-salvinorin] | 72.8 ± 4 | 65 ± 24 |  |  |
| CC(=O)O[C@H]1C[C@@H](C(=O)O)[C@]2(C)CC[C@@H]3C(=O)O[C@H](c4ccoc4)C[C@]3(C)C2C1=O (stereo partly drawn) [Compound 31, epi-demethyl Salvinorin] | 84 | 17.3 | 93 ± 5 |  |
| 2-(N,N-dimethylamino)-salvinorin [Compound 19] |  |  |  | EC50 ([1]; read-out: EC50): 343 ± 12 nM; Ki ([2]; read-out: Ki): 90.9 ± 2.5 nM |
| COC(=O)[C@@H]1C[C@H](NC(=O)NC(=O)C(Cl)(Cl)Cl)C(=O)C2[C@@]1(C)CC[C@H]1C(=O)O[C@H](c3ccoc3)C[C@]21C (some centres unmarked) [Compound 79] | 471 ± 110 | 227 ± 32 | 103 |  |
| CC(=O)OC1CC(C(=O)N2CCCC2C(=O)OCc2ccccc2)C2(C)CCC3C(=O)OC(c4ccoc4)CC3(C)C2C1=O (centres unmarked) [Compound 103] | 348 ± 26 | 210 ± 32 | 100 |  |
| COC(=O)[C@@H]1C[C@H](OC(=O)Nc2ccccc2)C(=O)C2[C@@]1(C)CC[C@H]1C(=O)O[C@H](c3ccoc3)C[C@]21C (some centres unmarked) [Compound 86] | 197 ± 39 | 282 ± 13 | 93 |  |
| CCNC(=O)O[C@H]1C[C@@H](C(=O)OC)[C@]2(C)CC[C@H]3C(=O)O[C@H](c4ccoc4)C[C@]3(C)C2C1=O (some centres unmarked) [Compound 20, 2-(O—(N-ethyl)formamide)-salvinorin B] | > 1000 | 462 ± 20 |  |  |
| COC(=O)C1CC(NC(C)=O)C(=O)C2C1(C)CCC1C(=O)OC(c3ccoc3)CC12C (stereo not drawn) [Compound 212b, 2-epi-(acetamide)-salvinorin] |  |  |  | EC50 ([1]; read-out: EC50): 339 ± 33 nM; Ki ([2]; read-out: Ki): 332 ± 41 nM |
| CC(=O)OC1CC(C(=O)NCC(=O)OCc2ccccc2)C2(C)CCC3C(=O)OC(c4ccoc4)CC3(C)C2C1=O (centres unmarked) [Compound 100] | 227 ± 15 | 470 ± 92 | 105 |  |
| COC(=O)[C@@H]1C[C@H](OC(C)=O)C(=O)C2[C@@]1(C)CC[C@H]1C(=O)O[C@H](c3ccoc3)C[C@]21C (some centres unmarked) [salvinorin A] |  |  |  | effect on locomotor activity (rats [3]): without affecting locomotor activity; effect in the forced swim test (rats [4]): depressive-like effects; ICSS thresholds (rats [5]): significantly elevated ICSS thresholds |
| COC(=O)[C@@H]1C[C@@H](NC(C)C)C(=O)C2[C@@]1(C)CC[C@H]1C(=O)O[C@H](c3ccoc3)C[C@]21C (stereo partly drawn) [Compound 75, 2-epi-(N-isopropyl)-salvinorin] | 7.2 ± 0.3 | 2.3 ± 0.6 |  |  |
| COC(=O)[C@@H]1C[C@H](OC(=O)CNC(=O)OCC2c3ccccc3-c3ccccc32)C(=O)C2[C@@]1(C)CC[C@H]1C(=O)O[C@H](c3ccoc3)C[C@]21C (some centres unmarked) [Compound 21] | > 4120 | > 277 |  |  |
| COC(=O)[C@@H]1C[C@H](OCc2ccccc2)C(=O)C2[C@@]1(C)CC[C@H]1C(=O)O[C@H](c3ccoc3)C[C@]21C (some centres unmarked) [Compound 17, 2-benzyloxy-salvinorin B] | 161 ± 14 | 75.7 ± 5.9 |  |  |

Reference: US20070213394A1 (priority 2004, published 2007)
